Measurements: patent publication US20130096160A1, “ARYLTHIAZOLYL PIPERIDINES AND RELATED COMPOUNDS AS MODULATORS OF SURVIVAL MOTOR NEURON (SMN) PROTEIN PRODUCTION” (Secretary, Department of Health and Human Services, priority 2010, published 2013)

Tested on: SMN2-luciferase reporter
Test: SMN2-luciferase reporter qHTS assay
Assay type: cell-based, human
Parameters: key to Curve Class: A curve class of 1.1 is a full agonist/antagonist; a curve class of 4 indicates the compound is inactive
Settings: for Curve Class: agonist/antagonist character of the concentration-response, lower values = more significant concentration-response; for Increased SMN2 activity: percent increase (or decrease) in SMN2 levels compared to control in which no test compound is added
Excerpt: A cell-based quantitative high throughput screening (qHTS) assay is used to identify compounds able to increase SMN production. The assay uses a SMN2-luciferase reporter to determine if exon 7 of the SMN gene is expressed, which correlates with increased full-length SMN production from the SMN2 gene. As controls, a homologue SMN1-luciferase reporter cell line looks for variations in expression of the SMN1 gene and a cell line with just the luciferase reporter looks at the capacity of the compounds to inhibit luciferase. In addition, increments in SMN production by lead compounds were confirmed by Western-Blot analysis using SMA patient fibroblasts.
For the qHTS assay, concentration-response profiles are generated at the primary-screen level for each library compound to minimize the number of false positives. A dilution series consisting of seven points separated by five-fold concentration differences is prepared for each compound, yielding a concentration series that spans a range of about four orders of magnitude, for example from a high concentration of 50 micromolar to a low concentration of 3.2 nanomolar and providing adequate data for fitting to a Hill equation. For the assay, the SMN2 reporter cell line was plated at a density of ˜2000 cells/well in complete media (phenol red free DMEM, 10% detacl calf serum, and 1× pen/strep), in 1536 well white solid bottom tissue culture treated plates (Greiner). Cells were allowed to adhere and recover at 37 C in 5% CO2 for 10-12 hours. Compounds were added to the plates by a Pintool (Kalypsys) at a volume of 23 nl/well. Cells were incubated in the presence of compounds for 2 days at 37 C in 5% CO2. In order to quantify luciferase reporter levels, 3 ul/well of OneGlo (Promega) was added to each well and incubated at room temperature for 10 minutes. Luminescence from the reporter in each well is measured using a Viewlux CCD based imager (Perkin Elmer) with an integration time of 30 seconds and a binning of 2× in luminescence mode. Sodium butyrate was used as the positive control compound for luciferase induction and a column of 32 wells of 9.2 mM compound on each plate was used to monitor assay performance.
The SMN reporters used herein are modified from those previously described (M. L. Zhang, C. L. Lorson, E. J. Androphy and J. Zhou, An in vivo reporter system for measuring increased inclusion of exon 7 in SMN2 mRNA: potential therapy of SMA, Gene Ther 8 (2001), pp. 1532-1538.)
The sequence of the SMN1 reporter vector used herein is given in SEQ ID NO.:1, while that of the SMN2 reporter vector is given in SEQ ID NO.:2.
Each of the SMN reporters is constructed from three separate DNA fragments: (1) an SMN promotor sequence from the transcriptional reporter p 4.0T (SMN1) or p3.4C (SMN2) described in Monani, et al. Biochimica et Biophysica Acta 1445 (1999) 330-336; (2) a modification of the firefly luciferase splicing reporter for SMN1 or SMN2 described by Zhang et al; and (3) a 744 bp SMN cDNA fragment.
The 3.7 kB SMN1 promoter fragment is obtained by restriction of p4.0T with BglII and SacII. A 3.4 kB SMN2 promoter fragment is obtained by restriction of p3.4C with KpnI and SacII; a 300 bp BglII/KpnI fragment from p4.0T is then added to the 3.4 kB SMN2 promoter fragment to yield the final 3.7 kB SMN2 promoter fragment.
The modified SMN1 and SMN2 firefly luciferase splicing reporters are obtained by removing 4 kB of intron 6 in the original reporter system by restriction with SmaI/Swa followed by religation of the reporter. A 4 kB luciferase splicing reporter is then obtaind by digestion with XhoI and NotI.
Ths SMN cDNA fragment is obtained by generating the productof a polymerase chain reaction (PCR) on a cDNA preparation using […] (SEQ ID NO:3) as the forward primer and Tatctcgagtggtccagaaggaaatggaggcagcc (SEQ ID NO:4) as the reverse primer. The PCR product is then digested with XhoI and SacII. […]

Row | SMILES | Curve Class | Increased SMN2 activity [%]
1 | O=C(C1CCN(c2nc(-c3ccc(Br)cc3)cs2)CC1)N1CCOCC1 [Example 74, (1-(4-(4-Bromophenyl)Thiazol-2-yl)Piperidin-4-yl)(Morpholino)Methanone] | 2.2 | 77.48
2 | CN(C)c1cccc(-c2nccc(N3CCC(C(N)=O)CC3)n2)c1 [Example 104, 1-(2-(3-(Dimethylamino)Phenyl)Pyrimidin-4-yl)Piperidine-4-Carboxamide] | 2.1 | 306.3
3 | NC(=O)C1CCN(c2ncc(-c3cccc(N4CCCCC4)c3)s2)CC1 [Example 138, 1-(5-(3-(Piperidin-1-yl)Phenyl)Thiazol-2-yl)Piperidine-4-Carboxamide] | 1.1 | 565.6
4 | NC(=O)C1CCN(c2nccc(-c3ccc4c(c3)OCCCO4)n2)CC1 [Example 128, 1-(4-(3,4-Dihydro-2H-Benzo[B][1,4]Dioxepin-7-yl)Pyrimidin-2-yl)Piperidine-4-Carboxamide] | 1.1 | 234.2
5 | COc1cc(-c2csc(N3CCC(C(N)=O)CC3)n2)cc(OC)c1OC [Example 84, 1-(4-(3,4,5-Trimethoxyphenyl)Thiazol-2-yl)Piperidine-4-Carboxamide] | 2.2 | 73.33
6 | CC(=O)C1CCN(c2ncc(-c3cccc(N(C)C)c3)s2)CC1 [Example 141, 1-(1-(5-(3-(Dimethylamino)Phenyl)Thiazol-2-yl)Piperidin-4-yl)Ethanone] | 1.1 | 224.6
7 | NC(=O)C1CCN(c2nc(-c3ccc(C(F)(F)F)cc3)cs2)CC1 [Example 22, 1-(4-(4-Trifluoromethylphenyl)Thiazol-2-yl)Piperidine-4-Carboxamide] | 1.1 | 386.1
8 | NC(=O)C1CCN(c2nc(-c3cccc(Br)c3)cs2)CC1 [Example 26, 1-(4-(3-Bromophenyl)Thiazol-2-yl)Piperidine-4-Carboxamide] | 2.2 | 57.55
9 | CN(C)c1cccc(-c2cnc(N3CCC(C(N)=O)CC3)s2)c1 [Example 88, 1-(5-(3-(Dimethylamino)Phenyl)Thiazol-2-yl)Piperidine-4-Carboxamide] | 1.1 | 550.44
10 | NC(=O)C1CCN(c2ncc(-c3ccc4c(c3)OC(F)(F)O4)s2)CC1 [Example 153, 1-(5-(2,2-Difluorobenzo[D][1,3]Dioxol-5-yl)Thiazol-2-yl)Piperidine-4-Carboxamide] | 1.1 | 598.4
11 | NC(=O)C1CCN(c2nc(-c3ccc4occc(=O)c4c3)cs2)CC1 [Example 50, 1-(4-(4-Oxo-4H-Chromen-6-yl)Thiazol-2-yl)Piperidine-4-Carboxamide] | 2.1 | 589.68
12 | COc1ccc(-c2cnc(N3CCC(C(N)=O)CC3)s2)cc1OC [Example 150, 1-(5-(3,4-Dimethoxyphenyl)Thiazol-2-yl)Piperidine-4-Carboxamide] | 1.1 | 209.7
13 | N#CC1CCN(c2nc(-c3ccc(Br)cc3)cs2)CC1 [Example 102, 1-(4-(4-Bromophenyl)Thiazol-2-yl)Piperidine-4-Carbonitrile] | 2.2 | 77.87
14 | NC(=O)N1CCN(c2nc(-c3ccc(Br)cc3)cs2)CC1 [Example 118, 4-(4-(4-Bromophenyl)Thiazol-2-yl)Piperazine-1-Carboxamide] | 2.1 | 88.79
15 | Cc1cccc(-c2csc(N3CCC(C(N)=O)CC3)n2)c1 [Example 46, 1-(4-M-Tolylthiazol-2-yl)Piperidine-4-Carboxamide] | 2.1 | 187.4
16 | NC(=O)C1CCN(c2ncc(-c3cccc(N4CCCC4)c3)s2)CC1 [Example 137, 1-(5-(3-(Pyrrolidin-1-yl)Phenyl)Thiazol-2-yl)Piperidine-4-Carboxamide] | 1.1 | 685.1
17 | NC(=O)C1CCN(c2nccc(-c3ccc(Br)cc3)n2)CC1 [Example 80, 1-(4-(4-Bromophenyl)Pyrimidin-2-yl)Piperidine-4-Carboxamide] | 1.1 | 387
18 | NC(=O)C1CCN(c2nc(-c3ccc(Oc4ccccc4)cc3)cs2)CC1 [Example 92, 1-(4-(4-Phenoxyphenyl)Thiazol-2-yl)Piperidine-4-Carboxamide] | 1.1 | 240
19 | Cc1ccc(-c2csc(N3CCC(C(N)=O)CC3)n2)cc1 [Example 21, 1-(4-(4-Methylphenyl)Thiazol-2-yl)Piperidine-4-Carboxamide] | 1.1 | 439.1
20 | NC(=O)C1CCN(c2nc(-c3cccc([N+](=O)[O-])c3)cs2)CC1 [Example 37, 1-(4-(3-Nitrophenyl)Thiazol-2-yl)Piperidine-4-Carboxamide] | 2.4 | 20.29
21 | CN(C)c1cccc(-c2nc(N3CCC(C(N)=O)CC3)ncc2F)c1 [Example 149, 1-(4-(3-(Dimethylamino)Phenyl)-5-Fluoropyrimidin-2-yl)Piperidine-4-Carboxamide] | 1.1 | 373.2
22 | CN(C)C(=O)C1CCN(c2nc(-c3ccc(Br)cc3)cs2)CC1 [Example 71, 1-(4-(4-Bromophenyl)Thiazol-2-yl)-N,N-Dimethylpiperidine-4-Carboxamide] | 2.4 | 42.71
23 | NC(=O)C1CCN(c2nc(-c3cccc(F)c3)cs2)CC1 [Example 33, 1-(4-(3-Fluorophenyl)Thiazol-2-yl)Piperidine-4-Carboxamide] | 2.2 | 64
24 | CCOC(=O)C1CCN(c2nc(-c3ccc(Br)cc3)cs2)CC1 [Example 44, Ethyl 1-(4-(4-Bromophenyl)Thiazol-2-yl)Piperidine-4-Carboxylate] | 1.1 | 550.3
25 | CC(=O)NC1CCN(c2nc(-c3ccc(Br)cc3)cs2)CC1 [Example 113, N-(1-(4-(4-Bromophenyl)Thiazol-2-yl)Piperidin-4-yl)Acetamide] | −1.4 | −56.62
26 | NC(=O)C1CCN(c2ncnc(-c3ccc4c(c3)OCCCO4)n2)CC1 [Example 144, 1-(4-(3,4-Dihydro-2H-Benzo[B][1,4]Dioxepin-7-yl)-1,3,5-Triazin-2-yl)Piperidine-4-Carboxamide] | 1.1 | 186.2
27 | O=C(Nc1ccccc1)C1CCN(c2nc(-c3ccc(Br)cc3)cs2)CC1 [Example 72, 1-(4-(4-Bromophenyl)Thiazol-2-yl)-N-Phenylpiperidine-4-Carboxamide] | 1.1 | 262.4
28 | O=C(NCCc1ccccc1)C1CCN(c2nc(-c3ccc(Br)cc3)cs2)CC1 [Example 77, 1-(4-(4-Bromophenyl)Thiazol-2-yl)-N-Phenethylpiperidine-4-Carboxamide] | 2.4 | 31.29
29 | NC(=O)C1CCN(c2nc(-c3cc4ccccc4o3)cs2)CC1 [Example 68, 1-(4-(Benzofuran-2-yl)Thiazol-2-yl)Piperidine-4-Carboxamide] | 2.1 | 100
